As usually defined, the MIC80 is the lowest concentration that inhibits either 80% of growth or 80% of the strains tested, depending on the study. The half-life is the time needed for the level to fall by half in the phase considered. As a reminder, the clearance is the volume of plasma or blood freed of the substance per unit of time.

In brackets after ≈: the same amount, converted by molar mass. Activity calls are given as the source filed them.

Here are results for one molecule from ChEMBL document CHEMBL5528067, “From Synergy to Monotherapy: Discovery of Novel 2,4,6-Trisubstituted Triazine Hydrazone Derivatives with Potent Antifungal Potency In Vitro and In Vivo” (J Med Chem, 2024).

Data set [1] deals with Candida albicans. Briefly: Antifungal activity against FCZ-resistant Candida albicans strain 904 assessed as growth inhibition measured after 48 hrs incubation by CLSI based micro-dilution broth method. Format: functional. For orientation: In broth dilution the organism is exposed to a series of concentrations in liquid medium.
The test system of data set [2] is [Candida] auris. Briefly: Antifungal activity against FCZ-resistant Candida auris 919 assessed as growth inhibition measured after 48 hrs incubation by CLSI based micro-dilution broth method. The format is functional. The conditions noted are these: Candidozyma auris.
Data set [3] is described as follows: Metabolic stability in mouse liver microsomes assessed as half life measured upto 60 mins by LC-MS/MS analysis. Format: ADME, Microsome. Background: Liver microsomes are a subcellular fraction often used to study metabolism.
Data set [4] is described as follows: Metabolic stability in mouse liver microsomes assessed as intrinsic clearance measured per mg of protein upto 60 mins by LC-MS/MS analysis. The format is ADME, Microsome. Particulars: read-out: CLH.
Data set [5] relates to Candida albicans. Put plainly: Suppression of SAP2 gene expression in Candida albicans SC5314 assessed as fold increase at 8 microg/ml by real time RT-PCR analysis relative to control. Format: functional. The conditions noted are these: dose 8.0 µg/ml. Background: In qPCR the cycle at which signal appears reflects the starting amount.
The test system of data set [6] is Candida albicans. Put plainly: Antibiofilm activity against Candida albicans SC5314 assessed as inhibition of biofilm formation at 32 microg/ml incubated for 24 hrs by XTT/menadione reduction assay relative to control. The format is functional. Details: scale not given: the % may be the effect or the level left. Particulars: dose 32 µg/ml.
The test system of data set [7] is Candida albicans. Put plainly: Suppression of BCR1 gene expression in Candida albicans SC5314 assessed as fold increase at 8 microg/ml by real time RT-PCR analysis relative to control. Format: functional. The conditions noted are these: dose 8.0 µg/ml.
Data set [8] relates to Candida albicans. Briefly: Suppression of SAP6 gene expression in Candida albicans SC5314 assessed as fold increase at 8 microg/ml by real time RT-PCR analysis relative to control. The format is functional. The conditions noted are these: dose 8.0 µg/ml.
In data set [9] the test system is Candida albicans. Briefly: Filamentation inhibitory effect in Candida albicans SC5314 assessed as inhibition of hyphal formation using hyphal-inducing RPMI 1640 medium at 2 to 8 microg/ml measured after 3 hrs by inverted imaging microscopy. The format is functional, organism-based. Particulars: dose 2-8 µg/ml.
Data set [10] deals with Candida albicans. Briefly: Filamentation inhibitory effect in Candida albicans SC5314 assessed as inhibition of hyphal formation using hyphal-inducing RPMI 1640 medium by measuring shorter hyphal at 2 to 8 microg/ml measured after 8 hrs by inverted imaging microscopy. Particulars: dose 2-8 µg/ml. Format: functional, organism-based.
Data set [11] relates to Candida albicans. Briefly: Induction of cell wall component change in Candida albicans SC5314 assessed as thinner mannan layer at 4 microg/ml measured after 12 hrs by transmission electron microscopy. Format: functional, organism-based. The conditions noted are these: dose 4.0 µg/ml.
Data set [12] is described as follows: Clearance in Sprague-Dawley rat at 2 mg/kg, iv measured upto 24 hrs by LC-MS/MS analysis. Particulars: in vivo. The format is ADME, organism-based.
The nature of data set [13]: Half life in Sprague-Dawley rat at 2 mg/kg, iv measured upto 24 hrs by LC-MS/MS analysis. The conditions noted are these: in vivo. Format: ADME, organism-based.
The test system of data set [14] is Pichia kudriavzevii. Put plainly: Antifungal activity against Candida krusei 4996 assessed as growth inhibition measured after 48 hrs incubation by CLSI based micro-dilution broth method. The format is functional.
For data set [15], the system named is Cryptococcus neoformans. Briefly: Antifungal activity against FCZ-resistant Cryptococcus neoformans 32609 assessed as growth inhibition at 0.5 to 4 microg/ml measured at 24 hrs incubation by time growth assay. Format: functional, organism-based. The conditions noted are these: dose 0.5-4 µg/ml.
The subject of data set [16] is Candida albicans. Briefly: Induction of cell wall component change in Candida albicans SC5314 assessed as swollen inner beta glucan layer at 4 microg/ml measured after 12 hrs by transmission electron microscopy. Particulars: dose 4.0 µg/ml. Format: functional, organism-based.
Data set [17] relates to Candida albicans. Put plainly: Upregulation of SAP6 gene expression in Candida albicans SC5314 assessed as fold increase at 4 microg/ml by real time RT-PCR analysis relative to control. The conditions noted are these: dose 4.0 µg/ml. Format: functional.
In data set [18] the test system is Candida albicans. Put plainly: In vivo antifungal activity against Candida albicans SC5314 infected in po dosed C57BL/6J mouse assessed as reduction in fungal burden in kidney treated once a day for 2 days. Format: functional, organism-based. The conditions noted are these: dose 5-10 mg/kg, time 2.0 day.
Data set [19] has as its system Candida albicans. Put plainly: Antifungal activity against FCZ-resistant Candida albicans SC5314 assessed as growth inhibition measured after 48 hrs incubation by CLSI based micro-dilution broth method. The format is functional.

Turning to `O=[N+]([O-])c1ccc(O)c(/C=N/Nc2nc(NCc3ccc(F)cc3)nc(NCc3ccc(F)cc3)n2)c1`, the MIC80 in data set [1] was 1 µg/mL (≈ 1.97 µM); in [2], 16 µg/mL (≈ 31.6 µM); in data set [14] it was 1 µg/mL (≈ 1.97 µM); in data set [19], 4 µg/mL (≈ 7.9 µM). Besides, the results for the half-life in data set [3] and in [13] were 0.93 h and 1.28 h, respectively. Moreover, the microsomal CLint in data set [4] is 24.9 µL/min/mg. The fold change (FC) in data set [5] was determined as 1.22; in data set [7], 1.58; in [8], 2.99; in [17], 4.38. In addition, the Activity in data set [6] was 70%; in data set [18] it was “Dose-Dependent Effect”. Further, the result in data set [9], in data set [10], in [11], in data set [15] and in [16] was Active. The clearance in data set [12] came out at 22.9 mL/min/kg.
